Data: patent publication US12409206B2, “Use of cyclosporine analogues for treating fibrosis” (Hepion Pharmaceuticals, Inc., priority 2020, dated 2025)

Tests used:
Format in all cases: cell-based
[1] = test system: human precision cut liver slices (PCLS); test: PCLS biomarker secretion (ELISA); conditions: CRV431 applied at 5 μM; markers MCP-1, IL-6, TIMP1, hyaluronic acid, fibronectin, collagen 1α1
Procedure: (§1) PCLS were obtained from 5 human donors who underwent resection of liver cancer. Replicate slices were collected from healthy margins of the resections and cultured for 4 or 6 days depending on the experimental protocol. In the Nonstimulation Protocol slices were cultured for 6 days and treated for the entire period with DMSO vehicle or 5 μM CRV431. In the Stimulation Protocol slices were rested for 1 day and then administered the cytokines, TGFβ and PDGF-BB, for 3 days to stimulate inflammation and fibrosis. DMSO vehicle, CRV431 (1 and 5 μM), Alk5i (10 μM), obeticholic acid (5 μM), elafibranor (5 μM), resmetirom ([…]), and Aramchol (5 μM) were administered individually as drug treatments in the Stimulation Protocol concurrent with TGFβ+PDGF-BB. Culture medium treatments were replaced daily.
(§2) Four types of evaluations were conducted on the PCLS: (a) secretion of inflammation and fibrosis biomarkers into the culture medium, (b) histological staining and quantitation of Sirius red as a measure of tissue fibrosis, (c) gene expression of inflammation and fibrosis biomarkers by RT-PCR, and (d) RNA sequencing (RNA-Seq) of the complete transcriptome. Each of the four types of evaluation is described below: • (a) Biomarker secretion. Spent culture medium was collected daily from duplicate slices for each treatment. ELISAs were used to quantify secretion of monocyte chemoattractant protein (MCP-1), interleukin-6 (IL-6), tissue inhibitor of metalloproteinase-1 (TIMP1), hyaluronic acid, fibronectin, and collagen 1α1. For each donor the mean level of biomarker secretion in each treatment group was expressed as a percentage change relative to DMSO vehicle, the percentages averaged for all donors, and finally the mean daily percentage change calculated from all days of evaluation. […] Sirius red was quantified morphometrically in the histological sections as the percentage area with Sirius red staining in 10 sections from each treatment. In the Nonstimulation Protocol the quantity of Sirius red staining was expressed relative to the vehicle group. In the Stimulation Protocol the quantity of Sirius red staining was expressed relative to nonstimulated PCLS (0%) and TGFβ+PDGF-BB-stimulated+vehicle PCLS (100%). […] RNA was isolated from duplicate liver slices per treatment at the end of the experiments and evaluated by RT-PCR for 5 markers of inflammation and fibrosis: MCP-1, IL-6, TIMP1, αSMA, and collagen 1α1. β actin was used as a reference gene to calculate relative levels of each target gene RNA. […] RNA sequencing of the complete transcriptome (30 million reads per sample) was conducted on vehicle and 5 μM CRV431 treatment groups from 3 donors both from the Nonstimulation and Stimulation Protocols. […]

[2] = test system: human precision cut IPF lung slices; test: Secreted markers (ELISA) in precision cut IPF lung slices in culture; conditions: CRV431 applied at 5 μM; 4 daily treatment intervals; relative to DMSO vehicle
Procedure: (§3) This example describes a study conducted with precision cut lung slices. Precision cut slices from explanted lung tissue from a patient with biopsy-confirmed, idiopathic pulmonary fibrosis (IPF) were cultured for 6 days. Treatments were applied to 6 replicate slices per treatment on Day 2 of culture and replaced daily on Days 3, 4, and 5 of culture.
For generating the results of secreted marker (% daily average change) shown in FIG. 6A, spent medium (24-hr intervals) was collected on Days 3, 4, 5, and 6 to measure secretion by ELISA of six markers of inflammation and fibrosis: monocyte chemoattractant protein (MCP-1), interleukin-6 (IL-6), matrix metalloproteinase-7 (MMP-7), tissue inhibitor of metalloproteinase-1 (TIMP1), hyaluronic acid, and collagen 1α1. The mean level of secretion from 6 replicate slices for each drug treatment was expressed as a percentage change relative to DMSO vehicle treatment for each day of treatment, and then the mean percentage change from 4 daily treatment intervals was calculated.

[3] = test system: human precision cut IPF lung slices; test: Gene expression (RT-PCR) in precision cut IPF lung slices in culture; conditions: CRV431 applied at 5 μM; Day 6 of culture after 4 days of treatment; β actin reference
Procedure: as §3
For generating the results of gene expression shown in FIG. 6B, RNA was isolated from 6 pooled lung slices per treatment on Day 6 of culture following 4 days of drug or vehicle treatment and evaluated by reverse transcription-polymerase chain reaction (RT-PCR) for 6 markers of inflammation and fibrosis: MCP-1, IL-6, TGFβ TIMP1, collagen 1α1, and α-smooth muscle actin (αSMA). β actin was used as a reference gene to calculate relative levels of each target gene RNA.

[4] = test system: human precision cut liver slices (PCLS); test: PCLS gene expression by RT-PCR; conditions: CRV431 applied at 5 μM; markers MCP-1, IL-6, TIMP1, αSMA, collagen 1α1
Procedure: as §1, §2

Cc1ccc(=O)n(-c2ccccc2)c1 [pirfenidone, reference compound]
decreased: mean daily secretion of all markers [1] | mean daily secretion of all markers (MCP-1, IL-6, MMP-7, TIMP1, hyaluronic acid, collagen 1α1) [2] | gene expression of all markers (MCP-1, IL-6, TGFβ, TIMP1, collagen 1α1, αSMA) [3] | gene expression of all markers [4]

COC(=O)c1ccc2c(c1)NC(=O)/C2=C(\Nc1ccc(N(C)C(=O)CN2CCN(C)CC2)cc1)c1ccccc1 [nintedanib, reference compound]
decreased: mean daily secretion of all markers [1] | mean daily secretion of all markers (MCP-1, IL-6, MMP-7, TIMP1, hyaluronic acid, collagen 1α1) [2] | gene expression of all markers (MCP-1, IL-6, TGFβ, TIMP1, collagen 1α1, αSMA) [3] | gene expression of all markers [4]
